Reference: PMC8802628, “Selective activation of PFKL suppresses the phagocytic oxidative burst” (Cell, 2021)
Values belong to the compound of their own block, whether it stands above or below them.

Experiments:
[1] = system: primary human monocytes and human monocytic THP-1 cells; test: GSDMD-dependent pyroptosis, LDH release; type: cell-based; conditions: induced by nigericin, cytoplasmic LPS, or cytoplasmic poly(dA-dT)
Experimental: Primary human monocytes were primed with 1 μg/mL ultrapure LPS and 1μg/mL Pam3CSK4 for 3 h. THP-1 cells were primed with 1 μg/mL Pam3CSK4 for 4 h. Primed cells (1 × 10^5) were treated for 1 h with DMSO vehicle, 5 μM LDC7559 (unless indicated otherwise), 10 μM MCC950, or 50 μM VX765, and then for 1 h with 10 μg/mL nigericin, or 25 μg/mL LPS (electroporated using the NEON electroporation system; ThermoFisher Scientific), or they were transfected over 3 h with 1 μg/mL poly(dA-dT) using lipofectamine 2000 (0.5 μL/well).
LDH released into the culture medium was measured 1-3 h post-activation using a CellTox Green Cytotoxicity assay (Promega). IL-1β secretion was measured using a MSD Cytokine Assay, 96-well multi-array Tissue Culture Kit (Meso Scale Discovery). For immunoblotting, monocytes (2 × 10^6) were treated with 10-50 μM LCD7559 or 50 μM VX765 and electroporated with 25 μg/mL LPS using the NEON electroporation system. Cells were lysed after 1 h using lysis buffer (50 mM Tris pH 7.4, 150 mM NaCl, 10% glycerol, 1% NP-40, 1 mM MgCl and 1X Roche cOmplete protease inhibitor cocktail) and protein concentration was determined via BCA protein assay (Peirce). Antibodies for immunoblotting were GSDMD (L60, Cell Signaling Technologies), cleaved GSDMD-Asp275 (E7H9G, Cell Signaling Technologies) and GAPDH (14C10, Cell Signaling Technologies).

[2] = target: T1, recombinant NE (Homo sapiens, UniProt P08246); test: NE activity assay; type: biochemical
T1 construct: purchased Abcam ab91099
Experimental: NA-11 and LDC7559 were incubated at the indicated concentrations with 25 ng of recombinant NE for 20 min. NE activity was measured using a fluorescence NE activity assay kit (Abcam).

[3] = system: human peripheral blood neutrophils; test: NETosis assay in human neutrophils (SYTOX Green, DNA area); type: cell-based
[4] = target: T2, PFKL (K315R, V545L, and V582M), PFKL3Mut (Homo sapiens, UniProt P17858, K315R/V545L/V582M); test: Recombinant PFKL3Mut activity assay; type: biochemical; conditions: for activation of PFKL3Mut: 3.1 mM ATP, 1.5 mM F6P
T2 construct: made in house; host or cells: Sf9 insect cells (baculovirus)
T2 sequence (P17858 1-780 K315R/V545L/V582M): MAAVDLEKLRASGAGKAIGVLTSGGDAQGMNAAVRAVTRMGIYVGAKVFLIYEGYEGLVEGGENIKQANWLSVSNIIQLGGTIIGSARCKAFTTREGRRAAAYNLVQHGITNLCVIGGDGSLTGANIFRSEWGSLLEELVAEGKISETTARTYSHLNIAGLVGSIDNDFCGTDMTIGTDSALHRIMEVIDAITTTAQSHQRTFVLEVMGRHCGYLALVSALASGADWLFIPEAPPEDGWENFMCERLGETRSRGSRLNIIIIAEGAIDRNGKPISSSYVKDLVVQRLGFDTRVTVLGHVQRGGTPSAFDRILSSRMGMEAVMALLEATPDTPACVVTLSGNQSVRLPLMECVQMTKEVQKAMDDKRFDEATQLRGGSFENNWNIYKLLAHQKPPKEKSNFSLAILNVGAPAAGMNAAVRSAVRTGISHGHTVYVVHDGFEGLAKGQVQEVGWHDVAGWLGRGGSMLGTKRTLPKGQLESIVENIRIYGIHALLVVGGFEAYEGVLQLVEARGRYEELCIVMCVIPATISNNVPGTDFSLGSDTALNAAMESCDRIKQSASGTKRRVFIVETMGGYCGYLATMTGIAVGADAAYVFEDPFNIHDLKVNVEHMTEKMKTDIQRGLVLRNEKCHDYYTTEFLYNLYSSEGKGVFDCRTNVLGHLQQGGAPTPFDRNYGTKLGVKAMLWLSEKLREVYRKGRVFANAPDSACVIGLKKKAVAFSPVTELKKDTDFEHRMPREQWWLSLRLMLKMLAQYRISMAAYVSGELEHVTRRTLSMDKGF
Text: Recombinant N-terminal His-tagged human PFKL (NP_002617), PFKM (NP_000280), and PFKP (NM_002627.4) were generated as described ([Webb et al., 2015], [2017]). Point mutants of PFK1 were generated using the QuikChange Lightning kit (Aligent).
His-tagged PFK1 was expressed and purified as described with slight modifications ([Webb et al., 2015], [2017]). Briefly, baculovirus was generated using the Bac-to-Bac Expression system (Invitrogen). PFK1 was expressed in 2-5 × 10^6 sf9 cells at a multiplicity of infection of two for 48 h. Cells were lysed in 20 mM HEPES, pH 7.5, 80 mM potassium phosphate, 1 mM 2-mercapentoethanol, 10% glycerol, 10 mM imidazole, and EDTA-free Protease Inhibitor Cocktail (Abcam) with a Dounce homogenizer. The soluble lysate was incubated with HisPur cobalt resin (ThermoFisher Scientific). The resin was washed with 5 bead volumes lysis buffer, 10 bead volumes lysis buffer containing 2 M NaCl, and 5 further bead volumes lysis buffer. PFK1 was eluted in lysis buffer containing 100 mM imidazole. Fractions containing protein were pooled, passed over a desalting column equilibrated in freezing buffer [20 mM HEPES pH 7.5, 1 mM DTT, 500 μM ammonium sulfate, 5% glycerol, 1 mM ATP, and 100 μM EDTA] and concentrated using an Amicon Ultracel-30K Centrifugal Filter Unit (MilliporeSigma). Protein was quantified using a Bradford Protein Assay kit (ThermoFisher Scientific), and aliquotes frozen in liquid nitrogen for storage at −80°C.
PFK1 activity was determined using the rate of FBP production via an auxiliary enzyme assay adapted to a 96-well format ([Brüser et al., 2012]; [Webb et al., 2015]). The auxiliary enzymes aldolase, triosephosphate isomerase, and glycerol phosphate dehydrogenase were purchased from MilliporeSigma as ammonium sulfate slurries and desalted using an Amicon Ultracel-10K Centrifugal Filter Unit. For assays containing FBP, the rate of ADP production was determined using the auxiliary enzymes pyruvate kinase (PK) and lactate dehydrogenase (LDH) (MilliporeSigma) in a buffer containing 250 μM phosphoenolpyruvic acid, […] NADH, 50 mM HEPES pH 7.5, 100 mM KCl, 1 mM DTT, and effector concentrations as described in the text. The temperature was equilibrated to 25°C for 5 min before initiating the reaction 10 mM MgCl2. Absorbance at 340 nm was measured using a Varioskan LUX Multimode microplate reader (ThermoFisher). Kinetic parameters were generated by nonlinear regression analysis using Prism (GraphPad Software) and are the mean of a minimum of three measurements from two independent preparations of protein. One unit of activity was defined as the amount of enzyme that catalyzed the formation of 1 μmol of fructose 1,6-bisphosphate per min at 25°C. Assays for PFKM were performed at pH 7.0 due to the pH-dependence of ATP inhibition ([Trivedi and Danforth, 1966]).

T1 sequence (P08246 30-267): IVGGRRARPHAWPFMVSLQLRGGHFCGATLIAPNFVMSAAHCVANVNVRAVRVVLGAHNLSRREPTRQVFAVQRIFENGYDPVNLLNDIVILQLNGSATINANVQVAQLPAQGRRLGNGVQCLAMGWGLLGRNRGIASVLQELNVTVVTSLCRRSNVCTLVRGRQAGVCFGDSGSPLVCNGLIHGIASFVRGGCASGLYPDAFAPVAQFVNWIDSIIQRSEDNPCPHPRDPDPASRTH

Structure (SMILES): COc1ccccc1-c1cc2n(n1)Cc1ccc(NC(C)=O)cc1OC2 [LDC7559, reference compound]
- GSDMD-dependent pyroptosis (LDH release) [1]: did not alter GSDMD-dependent pyroptosis
- inhibition of recombinant NE [2]: neither LDC7559 nor NA-11 inhibited recombinant NE
- NETosis in response to PMA ([3]; 10 μM compound, compared with DMSO vehicle): defective NETosis

- hF6P (Hill coefficient) ([4]; PFKL3Mut, pH 7.5, 225 μM ATP): 3.07 ± 0.87
Structure (SMILES): O=C(CO)[C@@H](O)[C@H](O)[C@H](O)COP(=O)(O)O [F6P, fructose 6-phosphate]
- Vmax,F6P ([4]; PFKL3Mut, pH 7.5, 225 μM ATP): 17.36 ± 0.87 micromoles FBP per minute per milligram PFK1

Structure (SMILES): CC(=O)Nc1ccc2c(c1)OCc1cc(-c3ccccc3C#CCCCO)nn1C2 [NA-11]
- activation of PFKL3Mut ([4]; at 200 nM): no activation observed
- activation of PFKL3Mut ([4]; at 1 μM): only partial activation observed
- inhibition of recombinant NE [2]: neither LDC7559 nor NA-11 inhibited recombinant NE
- time of addition after PMA up to which NETosis was inhibited ([3]; compound added after PMA-induced activation): up to 1 h
